Measurements reported in patent US20230149362A1, “NEW CAPSULE COMPOSITION FOR PERORAL ADMINISTRATION” (Vicore Pharma AB, priority 2020, published 2023).
Structures can show the parent of a compound that is named as a salt.

Legend:
Assay type in all cases: physicochemical
[1] = Stability of aqueous solutions of C21 under four storage conditions (sensitivity to light); details: for Amount of Free C21, % of initial / Solution pH: sodium salt solution
Description: The stability of free C21 in 0.9% NaCl pH 9.4 was investigated.
Solutions of 1 mg/mL of C21 were studied for four weeks under four different storage conditions. The solution was filtered through a 0.22 sterile syringe filter to minimize bacterial growth during the stability test. The samples were analysed by HPLC for purity.
The results are summarised in Table 3 below, in which the amount of C21 is given as a percentage of the initial amount of drug. Solution pHs were also measured and are shown within parenthesis in Table 3.
The stability of the sodium salt of C21 was also investigated under the same storage conditions.
At the time for analysis of the one week samples, it was noted that the heating cabinet for storage of samples at 40° C. was broken. In view of this, these samples were thereafter kept at room temperature for three days.

[2] = Solubility of C21 sodium salt in lipid-based excipients (UPLC)
Description: C21 sodium salt (RISE AB, Södertälje, Sweden) was mixed with various potential carriers in the proportions described in Table 5 below (mg of C21 per gram of excipient) and absolute solubility of C21 was determined, two and five days after mixing.
The procedure was carried out by first weighing around 2.955 g of each excipient into a 20 mL headspace vial. Then, 0.045 g of C21 was added to each vial to reach a starting concentration of 15 mg/g. A magnetic stirrer was added into each mixture to stir the dispersion during the entire study (at around 300 rpm).
Solubility was determined at room temperature in general, although some of the excipients listed below (those marked with an asterisk) are solid at room temperature, in which case solubility was determined at 60° C.
The mixtures were observed over time to confirm excipient saturation. In the case of complete C21 solubilization (i.e. no particles were visible), addition of C21 was performed until a maximum API concentration of 100 mg/g was attained.
After confirming that the saturation point had been reached, or after reaching the maximum API concentration of 100 mg/g, sampling of the mixtures were performed after two (T2) and five (T5) days of stirring.
At each tirnepoint, and for each excipient, sampling was performed. The samples were filtered prior to assaying to determine the C21 sodium salt solubility in each excipient.
Two analytical samples were prepared from the filtrate obtain a mean value.
A Waters UPLC Acquity system (CSH C18; 100×2.1 mm×1.7 μm) with a UV and a DED detector was used to quantitatively determine solubility. The following chromatograhpic conditions were applied: (A) mobile phase water with 003% TFA, (6) acetonitrile with 0.03% TFA, with gradient, flow rate 0.5 mL/min, temperature 40° C., run time 24 minutes, injection volume 2 μL at room temperature.

[3] = Solubility of C21 sodium salt in aqueous vehicles; details: for solubility: thermodynamic from solid, saturation not reached, read-out: Concentration (solubility)
Description: In this experiment, C21 sodium salt (Syntagon AB) was added to the vehicle, small amounts at a time. About 20-30 mg of the sodium salt was easily dissolved in all the vehicles tested. Salt was continuously added to the same sample in an attempt to obtain a saturated solution. In this way, higher amounts, such as 40-60 mg/mL could be dissolved. The solubility is probably even higher than this in the vehicles tested, but this was not established in view of the limited amount of drug compound available.

[4] = 40° C., dark, 1 week, heating cabinet found broken

SMILES: CCCCOC(=O)NS(=O)(=O)c1sc(CC(C)C)cc1-c1ccc(Cn2ccnc2)cc1 [C21 sodium salt, N-butyloxycarbonyl-3-(4-imidazol-1-ylmethylphenyl)-5-iso-butylthiophene-2-sulfonamide]
- light-induced degradation ([1]; aqueous solution, RT/light): light-induced degradation occurs
- Amount of Free C21, % of initial ([1]; 5° C., dark, 1 week): 108 % of initial
- Solution pH ([1]; 5° C., dark, 1 week): (8.5)
- Amount of Free C21, % of initial ([1]; 5° C., dark, 2 weeks): 113 % of initial
- Solution pH ([1]; 5° C., dark, 2 weeks): (8.4)
- Amount of Free C21, % of initial ([1]; 5° C., dark, 3 weeks): 113 % of initial
- Solution pH ([1]; 5° C., dark, 3 weeks): (8.5)
- Amount of Free C21, % of initial ([1]; 5° C., dark, 4 weeks): 112 % of initial
- Solution pH ([1]; 5° C., dark, 4 weeks): (8.5)
- Amount of Free C21, % of initial ([1]; 5° C., dark, Initial): 100 % of initial
- Solution pH ([1]; 5° C., dark, Initial): (8.3)
- Amount of Free C21, % of initial [1, 4]: 111 % of initial
- Solution pH [1, 4]: (8.6)
- Amount of Free C21, % of initial ([1]; 40° C., dark, 2 weeks): 111 % of initial
- Solution pH ([1]; 40° C., dark, 2 weeks): (8.5)
- Amount of Free C21, % of initial ([1]; 40° C., dark, 3 weeks): 109 % of initial
- Solution pH ([1]; 40° C., dark, 3 weeks): (8.7)
- Amount of Free C21, % of initial ([1]; 40° C., dark, 4 weeks): 118 % of initial
- Solution pH ([1]; 40° C., dark, 4 weeks): (8.1)
- Amount of Free C21, % of initial ([1]; 40° C., dark, Initial): 100 % of initial
- Solution pH ([1]; 40° C., dark, Initial): (8.3)
- Amount of Free C21, % of initial ([1]; RT, dark, 1 week): 115 % of initial
- Solution pH ([1]; RT, dark, 1 week): (8.6)
- Amount of Free C21, % of initial ([1]; RT, dark, 2 weeks): 110 % of initial
- Solution pH ([1]; RT, dark, 2 weeks): (8.8)
- Amount of Free C21, % of initial ([1]; RT, dark, 3 weeks): 111 % of initial
- Solution pH ([1]; RT, dark, 3 weeks): (8.8)
- Amount of Free C21, % of initial ([1]; RT, dark, 4 weeks): 112 % of initial
- Solution pH ([1]; RT, dark, 4 weeks): (8.2)
- Amount of Free C21, % of initial ([1]; RT, dark, Initial): 100 % of initial
- Solution pH ([1]; RT, dark, Initial): (8.3)
- Amount of Free C21, % of initial ([1]; RT, light, 1 week): 108 % of initial
- Solution pH ([1]; RT, light, 1 week): (8.4)
- Amount of Free C21, % of initial ([1]; RT, light, 2 weeks): 96 % of initial
- Solution pH ([1]; RT, light, 2 weeks): (8.0)
- Amount of Free C21, % of initial ([1]; RT, light, 3 weeks): 72 % of initial
- Solution pH ([1]; RT, light, 3 weeks): (8.3)
- Amount of Free C21, % of initial ([1]; RT, light, 4 weeks): 9 % of initial
- Solution pH ([1]; RT, light, 4 weeks): (7.3)
- Amount of Free C21, % of initial ([1]; RT, light, Initial): 100 % of initial
- Solution pH ([1]; RT, light, Initial): (8.3)
- C21 Mean Solubility T5 Assay ([2]; Fasted Simulated Intestinal Fluid (FaSSIF), five days, room temperature): 10.4 mg/g
- C21 Mean Solubility T2 Assay ([2]; Fasted Simulated Intestinal Fluid (FaSSIF), two days, room temperature): 10.4 mg/g
- C21 Mean Solubility T5 Assay ([2]; Fed Simulated Intestinal Fluid (FeSSIF), five days, room temperature): 0.6 mg/g
- C21 Mean Solubility T2 Assay ([2]; Fed Simulated Intestinal Fluid (FeSSIF), two days, room temperature): 0.3 mg/g
- C21 Mean Solubility T5 Assay ([2]; Gelucire 43/01, five days, 60° C.): 0.0 mg/g
- C21 Mean Solubility T2 Assay ([2]; Gelucire 43/01, two days, 60° C.): 0.0 mg/g
- C21 Mean Solubility T5 Assay ([2]; Gelucire 44/14, five days, 60° C.): 43.9 mg/g
- C21 Mean Solubility T2 Assay ([2]; Gelucire 44/14, two days, 60° C.): 44.1 mg/g
- C21 Mean Solubility T5 Assay ([2]; Glyceryl monolinoleate (Maisine CC), five days, room temperature): 60.4 mg/g
- C21 Mean Solubility T2 Assay ([2]; Glyceryl monolinoleate (Maisine CC), two days, room temperature): 61.4 mg/g
- C21 Mean Solubility T5 Assay ([2]; Glyceryl monooleate (Peceol), five days, room temperature): 82.2 mg/g
- C21 Mean Solubility T2 Assay ([2]; Glyceryl monooleate (Peceol), two days, room temperature): 82.3 mg/g
- solubility ([2]; Labrafil M2130CS, at 60° C.): around 14 mg/g
- C21 Mean Solubility T5 Assay ([2]; Lauryl polyoxyl-6-glycerides (Labrafil M 2130 CS), five days, 60° C.): 13.5 mg/g
- C21 Mean Solubility T2 Assay ([2]; Lauryl polyoxyl-6-glycerides (Labrafil M 2130 CS), two days, 60° C.): 13.9 mg/g
- C21 Mean Solubility T5 Assay ([2]; Linoleoyl polyoxyl-6-glycerides (Labrafil M 2125 CS), five days, room temperature): 21.1 mg/g
- C21 Mean Solubility T2 Assay ([2]; Linoleoyl polyoxyl-6-glycerides (Labrafil M 2125 CS), two days, room temperature): 22.0 mg/g
- C21 Mean Solubility T5 Assay ([2]; Medium chain triglycerides (Miglyol 812N), five days, room temperature): 0.0 mg/g
- C21 Mean Solubility T2 Assay ([2]; Medium chain triglycerides (Miglyol 812N), two days, room temperature): 0.0 mg/g
- C21 Mean Solubility T5 Assay ([2]; Oleoyl polyoxyl-6-glycerides (Labrafil M 1944 CS), five days, room temperature): 20.1 mg/g
- C21 Mean Solubility T2 Assay ([2]; Oleoyl polyoxyl-6-glycerides (Labrafil M 1944 CS), two days, room temperature): 19.5 mg/g
- C21 Mean Solubility T5 Assay ([2]; Polyoxyethylene (20) sorbitan monooleate (Tween 80), five days, room temperature): 84.8 mg/g
- C21 Mean Solubility T2 Assay ([2]; Polyoxyethylene (20) sorbitan monooleate (Tween 80), two days, room temperature): 85.2 mg/g
- C21 Mean Solubility T5 Assay ([2]; Propylene glycol monocaprylate (Capryol PGMC), five days, room temperature): 7.1 mg/g
- C21 Mean Solubility T2 Assay ([2]; Propylene glycol monocaprylate (Capryol PGMC), two days, room temperature): 7.1 mg/g
- C21 Mean Solubility T5 Assay ([2]; Propylene glycol monolaurate (Lauroglycol 90), five days, room temperature): 12.4 mg/g
- C21 Mean Solubility T2 Assay ([2]; Propylene glycol monolaurate (Lauroglycol 90), two days, room temperature): 12.4 mg/g
- C21 Mean Solubility T5 Assay ([2]; Refined corn oil (Henry Lamotte), five days, room temperature): 0.0 mg/g
- C21 Mean Solubility T2 Assay ([2]; Refined corn oil (Henry Lamotte), two days, room temperature): 0.0 mg/g
- C21 Mean Solubility T5 Assay ([2]; Refined sesame oil (Henry Lamotte), five days of stirring, room temperature): 0.2 mg/g
- C21 Mean Solubility T2 Assay ([2]; Refined sesame oil (Henry Lamotte), two days of stirring, room temperature): 0.2 mg/g
- C21 Mean Solubility T5 Assay ([2]; Sorbitan monooleate (Montane 80), five days, room temperature): 61.5 mg/g
- C21 Mean Solubility T2 Assay ([2]; Sorbitan monooleate (Montane 80), two days, room temperature): 61.6 mg/g
- C21 Mean Solubility T5 Assay ([2]; Sorbitan trioleate (Span 85), five days, room temperature): 12.1 mg/g
- C21 Mean Solubility T2 Assay ([2]; Sorbitan trioleate (Span 85), two days, room temperature): 15.1 mg/g
- C21 Mean Solubility T5 Assay ([2]; Soya oil (Henry Lamotte), five days, room temperature): 0.0 mg/g
- C21 Mean Solubility T2 Assay ([2]; Soya oil (Henry Lamotte), two days, room temperature): 0.0 mg/g
- C21 Mean Solubility T5 Assay ([2]; Triacetin (Kollisolv GTA), five days, room temperature): 0.3 mg/g
- C21 Mean Solubility T2 Assay ([2]; Triacetin (Kollisolv GTA), two days, room temperature): 0.2 mg/g
- solubility in words ([2]; triglyceride-based excipients): essentially insoluble
- solubility ([3]; aqueous buffer, vehicle PBS pH 7.4, measured pH 9.4): > 40 mg/mL
- solubility compared with free C21 ([3]; aqueous vehicles): considerably higher than free C21
- solubility ([3]; saline or isotonic, vehicle 0.9% NaCl, pH 9.3): > 40 mg/mL
- amount that could be dissolved ([3]; vehicles tested (H2O, 0.9% NaCl, PBS), salt added continuously): 40 to 60 mg/mL
- solubility ([3]; water, vehicle H2O, pH 9.8): > 65 mg/mL
